Measurements reported in PMC5218480 (PLoS ONE, 2017).

Tested on: MV-4-11 cells
Experiment: Gene expression microarray analysis (Affymetrix PrimeView) and GSEA
Format: cell-based, human
Design: RFU PODN (11730768_x_at) / Fold change /veh PODN (11730768_x_at) / RFU LINC00158 (11744669_a_at) / Fold change /veh LINC00158 (11744669_a_at) / RFU DUSP10 (11751237_a_at) / Fold change /veh DUSP10 (11751237_a_at) / RFU ID3 (11757404_x_at) / Fold change /veh ID3 (11757404_x_at) / RFU PLEKHG5 (11737974_s_at) / Fold change /veh PLEKHG5 (11737974_s_at) / RFU LRRC4B (11730491_at) / Fold change /veh LRRC4B (11730491_at) / RFU GIMAP4 (11747438_a_at) / Fold change /veh GIMAP4 (11747438_a_at) / RFU KRT8 (11758183_x_at) / Fold change /veh KRT8 (11758183_x_at) / RFU CNN1 (11734310_a_at) / Fold change /veh CNN1 (11734310_a_at) / RFU VPS37D (11726825_at) / Fold change /veh VPS37D (11726825_at) / RFU C10orf10 (11716522_x_at) / Fold change /veh C10orf10 (11716522_x_at) / RFU KIR2DL2 /// KIR2DL4 /// KIR2DL5A /// KIR2DL5B /// KIR2DS1 /// KIR2DS2 /// KIR2DS3 /// KIR2DS4 /// KIR3DL3 /// KIR3DL3 /// KIR3DS1 (11738374_at) / Fold change /veh KIR2DL2 /// KIR2DL4 /// KIR2DL5A /// KIR2DL5B /// KIR2DS1 /// KIR2DS2 /// KIR2DS3 /// KIR2DS4 /// KIR3DL3 /// KIR3DL3 /// KIR3DS1 (11738374_at) / RFU C1QL1 (11718748_at) / Fold change /veh C1QL1 (11718748_at) / RFU TMPRSS4 (11747572_a_at) / Fold change /veh TMPRSS4 (11747572_a_at) / RFU HAMP (11756126_x_at) / Fold change /veh HAMP (11756126_x_at) / RFU RNFT2 (11725882_a_at) / Fold change /veh RNFT2 (11725882_a_at) / RFU NR4A2 (11747474_a_at) / Fold change /veh NR4A2 (11747474_a_at) / RFU ABCC12 (11746883_a_at) / Fold change /veh ABCC12 (11746883_a_at) / RFU TMEM136 (11760407_x_at) / Fold change /veh TMEM136 (11760407_x_at) / RFU CLDN22 /// WWC2 (11732394_at) / Fold change /veh CLDN22 /// WWC2 (11732394_at) / RFU HLA-DPB1 (11760878_x_at) / Fold change /veh HLA-DPB1 (11760878_x_at) / RFU SPINT1 (11716480_a_at) / Fold change /veh SPINT1 (11716480_a_at) / RFU GAP43 (11754022_s_at) / Fold change /veh GAP43 (11754022_s_at) / RFU A4GNT (11735810_at) / Fold change /veh A4GNT (11735810_at) / RFU PRB3 (11715151_x_at) / Fold change /veh PRB3 (11715151_x_at) / RFU TUBB4B (11761932_at) / Fold change /veh TUBB4B (11761932_at) / RFU CAPN14 (11732068_a_at) / Fold change /veh CAPN14 (11732068_a_at) / RFU TMCC2 (11721928_a_at) / Fold change /veh TMCC2 (11721928_a_at) / RFU IRGQ (11745062_a_at) / Fold change /veh IRGQ (11745062_a_at) / RFU FAM174B (11720279_a_at) / Fold change /veh FAM174B (11720279_a_at) / RFU TMPRSS4 (11748680_a_at) / Fold change /veh TMPRSS4 (11748680_a_at) / RFU FAM212B (11763350_a_at) / Fold change /veh FAM212B (11763350_a_at) / RFU PLEKHG5 (11743358_a_at) / Fold change /veh PLEKHG5 (11743358_a_at) / RFU ZSCAN30 (11745921_a_at) / Fold change /veh ZSCAN30 (11745921_a_at) / RFU CMKLR1 (11741424_a_at) / Fold change /veh CMKLR1 (11741424_a_at) / RFU LOC101060620 /// MAPK8IP1 (11723275_at) / Fold change /veh LOC101060620 /// MAPK8IP1 (11723275_at) / RFU SPTSSB (11747773_x_at) / Fold change /veh SPTSSB (11747773_x_at) / RFU PRSS12 (11739890_at) / Fold change /veh PRSS12 (11739890_at) / RFU BIN1 (11741810_x_at) / Fold change /veh BIN1 (11741810_x_at) / RFU WNT11 (11732464_a_at) / Fold change /veh WNT11 (11732464_a_at) / RFU C10orf10 (11716521_a_at) / Fold change /veh C10orf10 (11716521_a_at) / RFU C5orf56 (11738089_at) / Fold change /veh C5orf56 (11738089_at) / RFU CYB561 (11721691_x_at) / Fold change /veh CYB561 (11721691_x_at) / RFU ANKRD19P (11752326_a_at) / Fold change /veh ANKRD19P (11752326_a_at) / RFU OR2T12 /// OR2T33 /// OR2T8 (11738714_s_at) / Fold change /veh OR2T12 /// OR2T33 /// OR2T8 (11738714_s_at) / RFU VCAN (11748164_a_at) / Fold change /veh VCAN (11748164_a_at) / RFU JSRP1 (11732532_at) / Fold change /veh JSRP1 (11732532_at) / RFU KRTAP10-11 (11738290_x_at) / Fold change /veh KRTAP10-11 (11738290_x_at) / RFU MYO3A (11730013_a_at) / Fold change /veh MYO3A (11730013_a_at) / RFU EBF3 (11725865_a_at) / Fold change /veh EBF3 (11725865_a_at) / RFU CAMK2N1 (11719241_x_at) / Fold change /veh CAMK2N1 (11719241_x_at) / RFU C5orf56 (11738088_a_at) / Fold change /veh C5orf56 (11738088_a_at) / RFU OLFML3 (11715873_a_at) / Fold change /veh OLFML3 (11715873_a_at) / RFU LOC100653217 /// NTM (11731650_a_at) / Fold change /veh LOC100653217 /// NTM (11731650_a_at) / RFU MAPK11 (11762145_a_at) / Fold change /veh MAPK11 (11762145_a_at) / RFU FIZ1 (11724087_x_at) / Fold change /veh FIZ1 (11724087_x_at) / RFU OASL (11726364_x_at) / Fold change /veh OASL (11726364_x_at) / RFU SOX15 (11748057_x_at) / Fold change /veh SOX15 (11748057_x_at) / RFU CD79A (11719716_a_at) / Fold change /veh CD79A (11719716_a_at) / RFU HIST1H1D (11736915_at) / Fold change /veh HIST1H1D (11736915_at) / RFU CASKIN2 (11723855_a_at) / Fold change /veh CASKIN2 (11723855_a_at) / RFU LOC730098 (11760151_x_at) / Fold change /veh LOC730098 (11760151_x_at) / RFU OR4N2 (11742367_at) / Fold change /veh OR4N2 (11742367_at) / RFU PRRT2 (11749266_a_at) / Fold change /veh PRRT2 (11749266_a_at) / RFU SNX32 (11753110_a_at) / Fold change /veh SNX32 (11753110_a_at) / RFU CDHR5 (11726645_a_at) / Fold change /veh CDHR5 (11726645_a_at) / RFU RCAN1 (11760418_a_at) / Fold change /veh RCAN1 (11760418_a_at) / RFU FAM167A (11723789_a_at) / Fold change /veh FAM167A (11723789_a_at) / RFU FAM26E (11764081_at) / Fold change /veh FAM26E (11764081_at) / RFU ISYNA1 (11749810_s_at) / Fold change /veh ISYNA1 (11749810_s_at) / RFU ACY1 (11761880_at) / Fold change /veh ACY1 (11761880_at) / RFU 11764098_at / Fold change /veh 11764098_at / RFU SAMD14 (11745864_x_at) / Fold change /veh SAMD14 (11745864_x_at) / RFU NPB (11741838_a_at) / Fold change /veh NPB (11741838_a_at) / RFU TMPRSS6 (11731388_a_at) / Fold change /veh TMPRSS6 (11731388_a_at) / RFU KRTAP10-2 (11738614_at) / Fold change /veh KRTAP10-2 (11738614_at) / RFU ARHGAP8 /// PRR5-ARHGAP8 (11727945_x_at) / Fold change /veh ARHGAP8 /// PRR5-ARHGAP8 (11727945_x_at) / RFU KRTAP5-7 /// NADSYN1 (11734609_at) / Fold change /veh KRTAP5-7 /// NADSYN1 (11734609_at) / RFU RASL12 (11751679_a_at) / Fold change /veh RASL12 (11751679_a_at) / RFU CDKN2B (11736163_a_at) / Fold change /veh CDKN2B (11736163_a_at) / RFU PRF1 (11729649_at) / Fold change /veh PRF1 (11729649_at) / RFU, ZNF638 /// ZNF638-IT1 / Fold change vs veh, ZNF638 /// ZNF638-IT1 / RFU, PANK3 / Fold change vs veh, PANK3 / RFU, SH3YL1 / Fold change vs veh, SH3YL1 / RFU, ZEB2 / Fold change vs veh, ZEB2 / RFU, NRIP1 / Fold change vs veh, NRIP1 / RFU, PTTG1IP / Fold change vs veh, PTTG1IP / RFU, CAPN2 / Fold change vs veh, CAPN2 / RFU, MED14 / Fold change vs veh, MED14 / RFU, SNORA58 / Fold change vs veh, SNORA58 / RFU, C1orf63 / Fold change vs veh, C1orf63 / RFU, LRRFIP1 / Fold change vs veh, LRRFIP1 / RFU, NDUFAF7 / Fold change vs veh, NDUFAF7 / RFU, SLC12A2 / Fold change vs veh, SLC12A2 / RFU, IBTK / Fold change vs veh, IBTK / RFU, ESF1 / Fold change vs veh, ESF1 / Fold change vs veh, TMEM50B / RFU, TAOK1 / Fold change vs veh, TAOK1 / RFU, ACBD3 / Fold change vs veh, ACBD3 / RFU, TMA16 / Fold change vs veh, TMA16 / RFU, RWDD3 / Fold change vs veh, RWDD3 / RFU, BCAT1 / Fold change vs veh, BCAT1 / RFU, EDEM3 / Fold change vs veh, EDEM3 / RFU, TMEM33 / Fold change vs veh, TMEM33 / RFU, WDR75 / Fold change vs veh, WDR75 / RFU, AHCTF1 / Fold change vs veh, AHCTF1 / RFU, TFRC / Fold change vs veh, TFRC / RFU, ZDHHC17 / Fold change vs veh, ZDHHC17 / RFU, NOM1 / Fold change vs veh, NOM1 / RFU, ARL8B / Fold change vs veh, ARL8B / RFU, ZBTB11 / Fold change vs veh, ZBTB11 / RFU, TAMM41 / Fold change vs veh, TAMM41 / RFU, KIAA1704 /// LOC100996395 / Fold change vs veh, KIAA1704 /// LOC100996395 / RFU, ING1 / Fold change vs veh, ING1 / RFU, TRMT61B / Fold change vs veh, TRMT61B / RFU, FUBP3 / Fold change vs veh, FUBP3 / RFU, TP53 / Fold change vs veh, TP53 / RFU, TNKS2 / Fold change vs veh, TNKS2 / RFU, ZFP14 / Fold change vs veh, ZFP14 / RFU, ACTR2 / Fold change vs veh, ACTR2 / RFU, PPP3R1 / Fold change vs veh, PPP3R1 / RFU, PIK3R1 / Fold change vs veh, PIK3R1 / RFU, HNRNPA1 / Fold change vs veh, HNRNPA1 / RFU, RNF170 / Fold change vs veh, RNF170 / RFU, ZNF28 / Fold change vs veh, ZNF28 / RFU, RNGTT / Fold change vs veh, RNGTT / RFU, OGT / Fold change vs veh, OGT / RFU, BRD1 / Fold change vs veh, BRD1 / RFU, MARS / Fold change vs veh, MARS / RFU, ZNF655 / Fold change vs veh, ZNF655 / RFU, FAHD1 / Fold change vs veh, FAHD1 / RFU, BDP1 / Fold change vs veh, BDP1 / RFU, LRRCC1 / Fold change vs veh, LRRCC1 / RFU, ARID1A / Fold change vs veh, ARID1A / RFU, ZNF146 / Fold change vs veh, ZNF146 / RFU, ZNF330 / Fold change vs veh, ZNF330 / RFU, GPN3 / Fold change vs veh, GPN3 / RFU, C9orf123 / Fold change vs veh, C9orf123 / RFU, N4BP2L2 / Fold change vs veh, N4BP2L2 / RFU, ARFIP1 / Fold change vs veh, ARFIP1 / RFU, FAM179B / Fold change vs veh, FAM179B / RFU, BCL10 / Fold change vs veh, BCL10 / RFU, UHRF1BP1L / Fold change vs veh, UHRF1BP1L / RFU, BET1 / Fold change vs veh, BET1 / RFU, CNOT2 / Fold change vs veh, CNOT2 / RFU, ZNF268 / Fold change vs veh, ZNF268 / Fold change vs veh, ZNF507 / RFU, DGCR2 / Fold change vs veh, DGCR2 / RFU, WDSUB1 / Fold change vs veh, WDSUB1 / Fold change vs veh, HSP90B1 /// MIR3652 / RFU, ADSS / Fold change vs veh, ADSS / RFU, GK / Fold change vs veh, GK / RFU, ZNF148 / Fold change vs veh, ZNF148 / RFU, TAF9 / Fold change vs veh, TAF9 / RFU, SLC1A5 / Fold change vs veh, SLC1A5 / RFU, SLMO2 / Fold change vs veh, SLMO2 / RFU, ABCC4 / Fold change vs veh, ABCC4 / RFU, LOC101060439 /// RAP1B / Fold change vs veh, LOC101060439 /// RAP1B / RFU, RFX7 / Fold change vs veh, RFX7 / RFU, GTPBP10 / Fold change vs veh, GTPBP10 / RFU, CNEP1R1 / Fold change vs veh, CNEP1R1 / RFU, BIVM-ERCC5 /// ERCC5 / Fold change vs veh, BIVM-ERCC5 /// ERCC5 / RFU, ILF3 / Fold change vs veh, ILF3 / RFU 11762660_at / Fold change /veh 11762660_at / RFU VCAN (11757783_s_at) / Fold change /veh VCAN (11757783_s_at) / RFU DDX43 (11728927_at) / Fold change /veh DDX43 (11728927_at) / RFU KRT8 (11758188_x_at) / Fold change /veh KRT8 (11758188_x_at) / RFU NKD1 (11759106_at) / Fold change /veh NKD1 (11759106_at) / RFU SRD5A1 (11742802_a_at) / Fold change /veh SRD5A1 (11742802_a_at) / RFU TPSAB1 /// TPSB2 (11721975_s_at) / Fold change /veh TPSAB1 /// TPSB2 (11721975_s_at) / RFU GSTM3 (11746129_a_at) / Fold change /veh GSTM3 (11746129_a_at) / RFU IL23R (11737362_x_at) / Fold change /veh IL23R (11737362_x_at) / RFU TMEM51 (11727254_a_at) / Fold change /veh TMEM51 (11727254_a_at) / RFU PIWIL2 (11732686_x_at) / Fold change /veh PIWIL2 (11732686_x_at) / RFU ORM1 (11744905_x_at) / Fold change /veh ORM1 (11744905_x_at) / RFU CCDC152 (11743942_at) / Fold change /veh CCDC152 (11743942_at) / RFU ECM1 (11717891_a_at) / Fold change /veh ECM1 (11717891_a_at) / RFU IL23R (11748794_a_at) / Fold change /veh IL23R (11748794_a_at) / RFU TNFAIP8L3 (11732012_x_at) / Fold change /veh TNFAIP8L3 (11732012_x_at) / RFU MBOAT4 (11741988_at) / Fold change /veh MBOAT4 (11741988_at) / RFU 11764193_at / Fold change /veh 11764193_at / RFU TMEM53 (11763286_at) / Fold change /veh TMEM53 (11763286_at) / RFU MAGEB2 (11727129_at) / Fold change /veh MAGEB2 (11727129_at) / RFU TMEM200A (11744735_a_at) / Fold change /veh TMEM200A (11744735_a_at) / RFU CCDC152 (11751479_a_at) / Fold change /veh CCDC152 (11751479_a_at) / RFU FAM211A (11726209_a_at) / Fold change /veh FAM211A (11726209_a_at) / RFU RGS16 (11746705_a_at) / Fold change /veh RGS16 (11746705_a_at) / RFU VCAN (11755009_s_at) / Fold change /veh VCAN (11755009_s_at) / RFU RHOB (11743442_s_at) / Fold change /veh RHOB (11743442_s_at) / RFU RGS16 (11720943_a_at) / Fold change /veh RGS16 (11720943_a_at) / RFU RGS16 (11720944_at) / Fold change /veh RGS16 (11720944_at) / RFU, VPS4B / Fold change vs veh, VPS4B / RFU, CREB1 / Fold change vs veh, CREB1 / RFU, DNAJC13 / Fold change vs veh, DNAJC13 / RFU, GNAQ / Fold change vs veh, GNAQ / RFU, CDK5R1 / Fold change vs veh, CDK5R1 / RFU, ZRANB3 / Fold change vs veh, ZRANB3 / RFU, CUL4A / Fold change vs veh, CUL4A / RFU, CCNY / Fold change vs veh, CCNY / RFU, UFL1 / Fold change vs veh, UFL1 / RFU, COG3 / Fold change vs veh, COG3 / RFU, DIAPH2 / Fold change vs veh, DIAPH2 / RFU, SKA2 / Fold change vs veh, SKA2 / RFU, AFF3 / Fold change vs veh, AFF3 / RFU, LMF1 / Fold change vs veh, LMF1 / RFU, IPO11 / Fold change vs veh, IPO11 / RFU, DFFB / Fold change vs veh, DFFB / RFU, FOXP1 / Fold change vs veh, FOXP1 / RFU, CARD8 / Fold change vs veh, CARD8 / RFU, STRN3 / Fold change vs veh, STRN3 / RFU, ADK / Fold change vs veh, ADK / RFU, RASSF2 / Fold change vs veh, RASSF2 / RFU, WIPF1 / Fold change vs veh, WIPF1 / RFU, LARP1B / Fold change vs veh, LARP1B / RFU, RASA1 / Fold change vs veh, RASA1 / RFU, RB1 / Fold change vs veh, RB1 / RFU, PPFIA1 / Fold change vs veh, PPFIA1 / RFU, MAT2A / Fold change vs veh, MAT2A / RFU, CCT5 / Fold change vs veh, CCT5 / RFU, WDR92 / Fold change vs veh, WDR92 / RFU, CUX1 / Fold change vs veh, CUX1 / RFU, TTC7A / Fold change vs veh, TTC7A / RFU, TMEM135 / Fold change vs veh, TMEM135 / RFU, DEPTOR / Fold change vs veh, DEPTOR / RFU, CPM / Fold change vs veh, CPM / RFU, DNAJB6 / Fold change vs veh, DNAJB6 / RFU, CACNA2D3 / Fold change vs veh, CACNA2D3 / RFU, DTX4 / Fold change vs veh, DTX4 / RFU, TFCP2 / Fold change vs veh, TFCP2 / RFU, GMCL1 /// GMCL1P1 / Fold change vs veh, GMCL1 /// GMCL1P1 / RFU, AEBP2 / Fold change vs veh, AEBP2 / RFU, SNHG1 /// SNORD22 /// SNORD25 /// SNORD26 /// SNORD27 /// SNORD28 /// SNORD29 /// SNORD31 / Fold change vs veh, SNHG1 /// SNORD22 /// SNORD25 /// SNORD26 /// SNORD27 /// SNORD28 /// SNORD29 /// SNORD31 / Fold change (Aza/veh), C12orf56 (ProbeSet 11735607_a_at) / Fold change (ACY-1035/veh), C12orf56 (ProbeSet 11735607_a_at) / Fold change (Aza/veh), FGFR1OP (ProbeSet 11751329_s_at) / Fold change (ACY-1035/veh), FGFR1OP (ProbeSet 11751329_s_at) / Fold change (Aza/veh), VPS36 (ProbeSet 11739960_a_at) / Fold change (ACY-1035/veh), VPS36 (ProbeSet 11739960_a_at) / RFU SYPL1 (11715823_x_at) / Fold change /veh SYPL1 (11715823_x_at) / RFU IGFBP7 (11715501_s_at) / Fold change /veh IGFBP7 (11715501_s_at) / RFU REEP3 (11722064_at) / Fold change /veh REEP3 (11722064_at) / RFU IGLL1 (11728026_x_at) / Fold change /veh IGLL1 (11728026_x_at): dose or concentration left out as unconfirmed
Settings: ProbeSet 11731583_a_at; LIST D

Nc1ncn([C@@H]2O[C@H](CO)[C@@H](O)[C@H]2O)c(=O)n1 [azacitidine]
RFU, LARP1B: 75.03 RFU
